Test results: patent publication US20240425511A1, “HETEROCYCLIC COMPOUNDS FOR USE IN THE TREATMENT OF CANCER” (ARTIOS PHARMA LIMITED, priority 2021, published 2024)

Biological target: Human Polθ polymerase domain (aa1820-2590) (Homo sapiens (Human), UniProt O75417)
Experiment: Polθ Polymerase Domain WT Ki Assay (PicoGreen assay)
Format: biochemical
Details: average of repeat determinations; 100 nM DNA substrate, 50 μM dNTPs, 0.156 nM Polθ
Protocol: A PicoGreen assay was used to measure the K, values of reversible compounds that inhibit the activity of Polθ in vitro.
Human Polθ polymerase domain (aa1820-2590) was expressed in E. Coli, purified, aliquoted and stored at −80° C. until required. Polθ substrate was generated from a 1.2:1 mix of DNA II Short to DNA II Long to give a final concentration of […] substrate in annealing buffer (20 mM Tris pH 7.5, 50 mM NaCl). The substrate was heated in 50 mL aliquots to 95° C. in a heating block for 5 min before the heating block switched off, the reaction left to cool to rt and stored at −20° C. until required.
Assay measurements were performed with 1× buffer comprising 25 mM Tris pH 7.5, 12.5 mM NaCl, […], 5% (v/v) glycerol, 0.01% v/v Triton x-100, 0.1 mg/ml BSA, 1 mM DTT. […]
To stop the reaction, 5 μL of a solution containing 25 mM Tris-HCl pH 7.5 and 20 mM EDTA was added at […] (t=0, 15, 30, 60, 90, 120, 150, 180 mins) using the Tempest's time delay function. […] After completing the assay, 5 μL of detection reagent (25 mM Tris-HCl pH 7.5 and 2.5% (v/v) PicoGreen) was dispensed into the wells using a Tempest liquid handler (Formulatrix) and plates subsequently read on the CLARIOstar Plus (BMG Labtech) using the default optical settings for fluorescein and the auto gain/focus settings. […]

Chain of Human Polθ polymerase domain (aa1820-2590) (O75417 1820-2590): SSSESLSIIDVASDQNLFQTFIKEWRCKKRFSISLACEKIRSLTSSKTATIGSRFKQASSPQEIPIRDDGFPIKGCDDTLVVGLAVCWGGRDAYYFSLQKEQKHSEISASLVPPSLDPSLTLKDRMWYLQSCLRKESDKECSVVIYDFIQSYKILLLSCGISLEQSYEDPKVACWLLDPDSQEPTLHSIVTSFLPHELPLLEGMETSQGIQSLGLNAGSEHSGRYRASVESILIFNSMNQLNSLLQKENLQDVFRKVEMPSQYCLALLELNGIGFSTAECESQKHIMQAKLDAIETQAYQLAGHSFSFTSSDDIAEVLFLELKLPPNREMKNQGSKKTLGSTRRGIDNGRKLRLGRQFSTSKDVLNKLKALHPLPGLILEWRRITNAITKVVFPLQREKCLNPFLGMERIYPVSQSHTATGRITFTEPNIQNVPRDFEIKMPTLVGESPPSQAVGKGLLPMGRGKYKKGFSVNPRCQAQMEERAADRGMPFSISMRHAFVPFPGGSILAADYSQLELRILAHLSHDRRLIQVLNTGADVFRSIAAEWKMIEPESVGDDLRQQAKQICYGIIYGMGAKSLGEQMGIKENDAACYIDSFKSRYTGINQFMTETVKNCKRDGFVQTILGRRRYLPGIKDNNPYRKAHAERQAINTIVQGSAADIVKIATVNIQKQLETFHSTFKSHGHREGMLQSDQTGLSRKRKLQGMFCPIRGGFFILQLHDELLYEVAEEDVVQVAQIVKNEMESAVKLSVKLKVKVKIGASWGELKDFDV

For `Cc1cc(C(F)(F)F)cc(N2C(=O)C[C@@H]3CN(CCN4CCN(C)CC4)c4c(C)cccc4N(C)C(=O)[C@H]32)n1` [Example 1, (3aR,11aS)-6,10-Dimethyl-1-(6-methyl-4-(trifluoromethyl)pyridin-2-yl)-5-(2-(4-methylpiperazin-1-yl)ethyl)-1,3a,4,5,10,11a-hexahydro-2H-benzo[b]pyrrolo[2,3-f][1,4]diazocine-2,11(3H)-dione], the Ki was 1.27 nM.
